Measured values published in US5474984A, “Horseshoe crab amebocyte lysate factor G activation inhibitor” (priority 1988, dated 1995).

Key:
factor G fraction of LAL = target: T1, factor G fraction of LAL (Tachypleus tridentatus, UniProt Q27082); test: Method of measuring the titer of the activity of a factor G activation inhibitor (GI); format: biochemical, T. tridentatus; conditions: 10 pg factor G activating substance (sample No. 106), 37° C. 30 minutes; 100% inhibition = 100 units
T1 construct: Prepared from horseshoe crab, T. tridentatus; from tissue; host or cells: horseshoe crab amebocyte lysate (LAL), factor G fraction
T1 sequence (Q27082 20-673): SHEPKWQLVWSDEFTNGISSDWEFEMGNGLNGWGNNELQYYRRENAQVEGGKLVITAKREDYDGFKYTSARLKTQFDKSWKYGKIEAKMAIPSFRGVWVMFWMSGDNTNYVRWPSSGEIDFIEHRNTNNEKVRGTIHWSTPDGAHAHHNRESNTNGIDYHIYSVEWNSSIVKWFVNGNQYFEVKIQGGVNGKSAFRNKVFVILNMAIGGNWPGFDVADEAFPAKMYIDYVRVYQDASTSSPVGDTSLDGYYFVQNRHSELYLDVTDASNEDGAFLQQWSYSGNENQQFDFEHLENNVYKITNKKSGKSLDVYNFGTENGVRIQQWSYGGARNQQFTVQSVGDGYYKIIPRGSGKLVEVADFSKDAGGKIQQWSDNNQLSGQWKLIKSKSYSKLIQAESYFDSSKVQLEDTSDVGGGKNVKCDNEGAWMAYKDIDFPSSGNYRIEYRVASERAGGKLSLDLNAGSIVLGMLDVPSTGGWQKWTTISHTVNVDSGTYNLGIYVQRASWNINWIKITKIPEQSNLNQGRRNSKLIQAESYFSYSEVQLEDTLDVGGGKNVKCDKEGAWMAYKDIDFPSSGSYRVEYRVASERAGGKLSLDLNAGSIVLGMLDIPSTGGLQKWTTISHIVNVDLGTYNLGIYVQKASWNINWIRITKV
T1 sequence (Q27083 32-309 partner): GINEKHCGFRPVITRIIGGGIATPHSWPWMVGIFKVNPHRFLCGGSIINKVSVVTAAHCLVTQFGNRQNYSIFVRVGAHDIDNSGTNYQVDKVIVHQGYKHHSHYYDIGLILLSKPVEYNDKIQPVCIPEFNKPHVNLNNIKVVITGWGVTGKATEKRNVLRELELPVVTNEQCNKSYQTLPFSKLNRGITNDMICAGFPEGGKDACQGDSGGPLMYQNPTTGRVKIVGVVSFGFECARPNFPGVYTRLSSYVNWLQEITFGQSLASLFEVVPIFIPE
Method: The factor G activation inhibiting titer was measured by the "method of measuring the titer of the activity of a factor G activation inhibitor" described below and expressed in units/mg.
Method of measuring the titer of the activity of a factor G activation inhibitor (sometimes abbreviated as GI):
Two hundred microliters of the reaction mixture contained the following materials. […]
The above reaction mixture was incubated at 37° C. for 30 minutes, and 0.5 ml each of 0.04% sodium nitrite (0.48M HCl solution), 0.3% ammonium sulfamate, and 0.07% N-(1-naphthyl)ethylenediamine dihydrochloride were successively added, and its color was changed by diazo coupling. The amount of pNA liberated was measured as the absorbance at 545 nm (A545).
The GI activity was calculated from the following equation. [formula]
The amount of GI which inhibited activation of factor G by GA under these conditions to an extent of 100% is defined as 100 units.
A sample which is water-insoluble is used after it is dissolved in 0.3M NaOH, and neutralized with an equal volume of 0.3M HCl.
A GPC fractionated pure sample of the sonicated product of Curdlan which was prepared in Preparation Example 5 (Table 2, sample No. 106 having a molecular weight of 216,000).
Prepared from horseshoe crab, T. tridentatus, inhabiting the coast of Japan in accordance with the method described in T. Obayashi et al., Clin. Chim. Acta, 149, 55-65 (1985).

factor G [1] = target: T2, factor G (Tachypleus tridentatus, UniProt Q27082); test: Operating mechanism experiment: inhibition of the factor G pathway with varied sequence of addition; format: biochemical, horseshoe crab; conditions: 5 micrograms inhibitor
T2 construct: prepared from LAL by the method described in T. Obayashi et al; from tissue; host or cells: horseshoe crab amebocyte lysate (LAL), factor G fraction
T2 sequence (Q27082 20-673): T1 sequence (Q27082 20-673)
T2 sequence (Q27083 32-309 partner): T1 sequence (Q27083 32-309 partner)
Description: (§1) A reaction mixture of the following composition was used. Two hundred microliters of the reaction mixture contained 5 micrograms of a factor G activation inhibitor (laminariheptaose; sample No. 10; abbreviated as I), 3 pg of a factor G activating substance (GPC fraction of sonicated Curdlan; sample No. 106; abbreviated as A), 20 microliters of a factor G fraction (abbreviated as G) and 30 microliters of a proclotting enzyme fraction (abbreviated as P) prepared from LAL by the method described in T. Obayashi et al., Clin. Chim. Acta, 149, 55-65 (1985), 20 μmoles of Tris-HCl buffer (pH 8.0), 20 μmoles of MgCl2 and 0.13 μmole of a chromogenic substrate Boc-Leu-Gly-Arg-pNA (abbreviated as S).
(§2) In each of Runs 1 to 5, the sequence of adding the ingredients and the incubating conditions were varied, and the degree of inhibition of the factor G pathway was measured and determined in comparison with a control in which no inhibitor was added.

factor G [2] = test: as above; format: biochemical, horseshoe crab; conditions: factor G activated by A before inhibitor
Description: as §1, §2

SMILES	Factor G activation inhibiting titer (factor G fraction of LAL)	further results
OC[C@H]1O[C@@H](O[C@H]2[C@H](O)[C@@H](CO)OC(O)[C@@H]2O)[C@H](O)[C@@H](O)[C@@H]1O (stereo partly drawn) [compound 5, Laminasiribose]	214 units/mg	
OC[C@H]1O[C@@H](O[C@@H]2[C@@H](O)[C@H](O[C@H]3[C@H](O)[C@@H](CO)OC(O)[C@@H]3O)O[C@H](CO)[C@H]2O)[C@H](O)[C@@H](O)[C@@H]1O (stereo partly drawn) [compound 6, Laminaritriose]	4,670 units/mg	
OC[C@H]1O[C@@H](O[C@@H]2[C@@H](O)[C@H](O[C@@H]3[C@@H](O)[C@H](O[C@H]4[C@H](O)[C@@H](CO)OC(O)[C@@H]4O)O[C@H](CO)[C@H]3O)O[C@H](CO)[C@H]2O)[C@H](O)[C@@H](O)[C@@H]1O (stereo partly drawn) [compound 7, Laminaritetraose]	20,000 units/mg	
OC[C@H]1O[C@@H](O[C@@H]2[C@@H](O)[C@H](O[C@@H]3[C@@H](O)[C@H](O[C@@H]4[C@@H](O)[C@H](O[C@H]5[C@H](O)[C@@H](CO)OC(O)[C@@H]5O)O[C@H](CO)[C@H]4O)O[C@H](CO)[C@H]3O)O[C@H](CO)[C@H]2O)[C@H](O)[C@@H](O)[C@@H]1O (stereo partly drawn) [compound 8, Laminaripentaose]	39,800 units/mg	
OC[C@H]1O[C@@H](O[C@@H]2[C@@H](O)[C@H](O[C@@H]3[C@@H](O)[C@H](O[C@@H]4[C@@H](O)[C@H](O[C@@H]5[C@@H](O)[C@H](O[C@H]6[C@H](O)[C@@H](CO)OC(O)[C@@H]6O)O[C@H](CO)[C@H]5O)O[C@H](CO)[C@H]4O)O[C@H](CO)[C@H]3O)O[C@H](CO)[C@H]2O)[C@H](O)[C@@H](O)[C@@H]1O (stereo partly drawn) [compound 9, Laminarihexaose]	55,000 units/mg	
OCC1OC(OC2C(O)C(CO)OC(OC3C(O)C(CO)OC(OC4C(O)C(CO)OC(OC5C(O)C(CO)OC(OC6C(O)C(CO)OC(OC7C(O)C(O)OC(CO)C7O)C6O)C5O)C4O)C3O)C2O)C(O)C(O)C1O (stereo not drawn) [compound 10, Laminariheptaose]	103,000 units/mg	Inhibition rate (%) to the control (factor G [1]; Run 1 (sequence of addition drawing 11), 3 pg activating substance sample No. 106): 100%; Inhibition rate (%) to the control (factor G [1]; Run 2 (sequence drawing 12), 3 pg activating substance): 100%; Inhibition rate (%) to the control (factor G [1]; Run 3 (sequence drawing 13), 3 pg activating substance): 100%; Inhibition rate (%) to the control (factor G [2]; Run 4 (sequence drawing 14)): 1.7%; Inhibition rate (%) to the control (factor G [2]; Run 5 (sequence drawing 15)): 0%
OC[C@H]1OC(O)[C@H](O)[C@@H](O)[C@@H]1O (stereo partly drawn) [compound 108, Glucose, reference compound]	< 100 units/mg	
